# Reference: patent US11477982B2, “2-amino-5-oxyalkyl-pyrimidine derivatives and their use for controlling undesired plant growth” (Bayer CropScience Aktiengesellschaft, priority 2017, dated 2022)
# Legend:
# Format in all cases: in vivo
# SETVI: Setaria viridis [1] = assay: Post-emergence herbicidal effect
# Procedure, shortened: (§1)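 Visual % activity against untreated controls, where 100% means plants died and 0% means no difference, rated about 3 weeks after treatment. Plants were sprayed at the one-leaf stage with WP or EC formulations diluted in water plus 0.5% additive, at 600 l/ha.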
# [2] = system: POLCO: Polygonum convolvulus; assay: Post-emergence herbicidal effect
# Procedure, shortened: as §1
# PHBPU: Ipomoea purpurea [3] = assay: Post-emergence herbicidal effect
# Procedure, shortened: as §1
# [4] = system: ECHCG: Echinochloa crus-galli; assay: Post-emergence herbicidal effect
# Procedure, shortened: as §1
# [5] = system: ABUTH: Abutilon theophrasti; assay: Post-emergence herbicidal effect
# Procedure, shortened: as §1
# [6] = system: ALOMY: Alopecurus myosuroides; assay: Post-emergence herbicidal effect
# Procedure, shortened: as §1
# HORMU: Hordeum murinum [7] = assay: Post-emergence herbicidal effect
# Procedure, shortened: as §1
# VIOTR: Viola tricolor [8] = assay: Post-emergence herbicidal effect; conditions: dosage 320 g/ha
# Procedure, shortened: as §1
# VERPE: Veronica persica [9] = assay: Post-emergence herbicidal effect; conditions: dosage 320 g/ha
# Procedure, shortened: as §1
# LOLRI: Lolium rigidum [10] = assay: Post-emergence herbicidal effect
# Procedure, shortened: as §1
# [11] = system: MATIN: Matricaria inodora; assay: Post-emergence herbicidal effect; conditions: dosage 320 g/ha
# Procedure, shortened: as §1
# STEME: Stellaria media [12] = assay: Post-emergence herbicidal effect; conditions: dosage 320 g/ha
# Procedure, shortened: as §1
# [13] = system: AMARE: Amaranthus retroflexus; assay: Post-emergence herbicidal effect; conditions: dosage 320 g/ha
# Procedure, shortened: as §1
# SETVI: Setaria viridis [14] = assay: Pre-emergence herbicidal effect; conditions: pre-emergence; dosage 320 g/ha
# Procedure, shortened: (§2)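 Seeds sown in pots and covered with soil; compounds formulated as WP or EC were sprayed onto the soil surface as aqueous suspension/emulsion with 0.5% additive at 600 l/ha water. Greenhouse growth for about 3 weeks, then visual scoring in % versus untreated controls (100% = plants died, 0% = like control).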
# [15] = system: POLCO: Polygonum convolvulus; assay: Pre-emergence herbicidal effect; conditions: dosage 320 g/ha
# Procedure, shortened: as §2
# PHBPU: Ipomoea purpurea [16] = assay: Pre-emergence herbicidal effect
# Procedure, shortened: as §2
# AVEFA: Avena fatua = assay: Pre-emergence herbicidal effect
# Procedure, shortened: as §2
# [17] = system: ECHCG: Echinochloa crus-galli; assay: Pre-emergence herbicidal effect; conditions: pre-emergence; dosage 320 g/ha
# Procedure, shortened: as §2
# [18] = system: ABUTH: Abutilon theophrasti; assay: Pre-emergence herbicidal effect
# Procedure, shortened: as §2
# [19] = system: ALOMY: Alopecurus myosuroides; assay: Pre-emergence herbicidal effect; conditions: pre-emergence; dosage 320 g/ha
# Procedure, shortened: as §2
# HORMU: Hordeum murinum [20] = assay: Pre-emergence herbicidal effect; conditions: pre-emergence; dosage 320 g/ha
# Procedure, shortened: as §2
# VIOTR: Viola tricolor [21] = assay: Pre-emergence herbicidal effect; conditions: dosage 320 g/ha
# Procedure, shortened: as §2
# VERPE: Veronica persica [22] = assay: Pre-emergence herbicidal effect; conditions: dosage 320 g/ha
# Procedure, shortened: as §2
# LOLRI: Lolium rigidum [23] = assay: Pre-emergence herbicidal effect; conditions: dosage 320 g/ha
# Procedure, shortened: as §2
# [24] = system: MATIN: Matricaria inodora; assay: Pre-emergence herbicidal effect; conditions: pre-emergence; dosage 320 g/ha
# Procedure, shortened: as §2
# STEME: Stellaria media [25] = assay: Pre-emergence herbicidal effect; conditions: pre-emergence; dosage 320 g/ha
# Procedure, shortened: as §2
# [26] = system: AMARE: Amaranthus retroflexus; assay: Pre-emergence herbicidal effect; conditions: pre-emergence; dosage 320 g/ha
# Procedure, shortened: as §2
smiles,measurement,setting,value
"Cc1ccc2c(c1)[C@H](Nc1ncc(C(C)O)c(C)n1)[C@@H](C)C2 (stereo partly drawn) [Example 1.7, 1-(2-{[(1R,2S)-2,6-Dimethyl-2,3-dihydro-1H-inden-1-yl]amino}-4-methylpyrimidin-5-yl)ethanol]",Herbicidal action against SETVI,SETVI: Setaria viridis [1]; dosage 80 g/ha,100%
same,Herbicidal action against SETVI,SETVI: Setaria viridis [1]; dosage 320 g/ha,100%
same,Herbicidal action against POLCO,[2]; dosage 80 g/ha,80%
same,Herbicidal action against POLCO,[2]; dosage 320 g/ha,80%
same,Herbicidal action against PHBPU,PHBPU: Ipomoea purpurea [3]; dosage 80 g/ha,60%
same,Herbicidal action against PHBPU,PHBPU: Ipomoea purpurea [3]; dosage 320 g/ha,100%
same,Herbicidal action against ECHCG,[4]; dosage 80 g/ha,20%
same,Herbicidal action against ECHCG,[4]; dosage 320 g/ha,100%
same,Herbicidal action against ABUTH,[5]; dosage 80 g/ha,60%
same,Herbicidal action against ABUTH,[5]; dosage 320 g/ha,80%
same,Herbicidal action against ALOMY,[6]; dosage 80 g/ha,80%
same,Herbicidal action against ALOMY,[6]; dosage 320 g/ha,100%
same,Herbicidal action against HORMU,HORMU: Hordeum murinum [7]; dosage 80 g/ha,40%
same,Herbicidal action against HORMU,HORMU: Hordeum murinum [7]; dosage 320 g/ha,100%
same,Herbicidal action against VIOTR,VIOTR: Viola tricolor [8],90%
same,Herbicidal action against VERPE,VERPE: Veronica persica [9],90%
same,Herbicidal action against LOLRI,LOLRI: Lolium rigidum [10]; dosage 80 g/ha,100%
same,Herbicidal action against LOLRI,LOLRI: Lolium rigidum [10]; dosage 320 g/ha,100%
same,Herbicidal action against MATIN,[11],90%
same,Herbicidal action against STEME,STEME: Stellaria media [12],100%
same,Herbicidal action against AMARE,[13],100%
same,Herbicidal action against SETVI,SETVI: Setaria viridis [14],100%
same,Herbicidal action against POLCO,[15],100%
same,Herbicidal action against PHBPU,PHBPU: Ipomoea purpurea [16]; dosage 80 g/ha,80%
same,Herbicidal action against PHBPU,PHBPU: Ipomoea purpurea [16]; dosage 320 g/ha,80%
same,Herbicidal action against AVEFA,AVEFA: Avena fatua; dosage 80 g/ha,70%
same,Herbicidal action against AVEFA,AVEFA: Avena fatua; dosage 320 g/ha,90%
same,Herbicidal action against ECHCG,[17],100%
same,Herbicidal action against ABUTH,[18]; dosage 80 g/ha,90%
same,Herbicidal action against ABUTH,[18]; dosage 320 g/ha,100%
same,Herbicidal action against ALOMY,[19],100%
same,Herbicidal action against HORMU,HORMU: Hordeum murinum [20],100%
same,Herbicidal action against VIOTR,VIOTR: Viola tricolor [21],100%
same,Herbicidal action against VERPE,VERPE: Veronica persica [22],100%
same,Herbicidal action against LOLRI,LOLRI: Lolium rigidum [23],100%
same,Herbicidal action against MATIN,[24],100%
same,Herbicidal action against STEME,STEME: Stellaria media [25],100%
same,Herbicidal action against AMARE,[26],100%
